Experimental data taken from US20050085463A1 (priority 2003, published 2005).
“And” between values parts separate entries of the source, which are not always exact repeats. Identical values can stand only once.

Experiments:
[1] = biological target: M2 receptors (Homo sapiens, UniProt P08172); assay: Ligand binding screen at 10 μM
[2] = biological target: 5-HT2C receptor (Homo sapiens, UniProt P28335); assay: R-SAT competitive antagonist assay
[3] = biological target: T1, M1 muscarinic receptor (Homo sapiens, UniProt P11229); assay: cell-based
T1 sequence (P11229 1-460): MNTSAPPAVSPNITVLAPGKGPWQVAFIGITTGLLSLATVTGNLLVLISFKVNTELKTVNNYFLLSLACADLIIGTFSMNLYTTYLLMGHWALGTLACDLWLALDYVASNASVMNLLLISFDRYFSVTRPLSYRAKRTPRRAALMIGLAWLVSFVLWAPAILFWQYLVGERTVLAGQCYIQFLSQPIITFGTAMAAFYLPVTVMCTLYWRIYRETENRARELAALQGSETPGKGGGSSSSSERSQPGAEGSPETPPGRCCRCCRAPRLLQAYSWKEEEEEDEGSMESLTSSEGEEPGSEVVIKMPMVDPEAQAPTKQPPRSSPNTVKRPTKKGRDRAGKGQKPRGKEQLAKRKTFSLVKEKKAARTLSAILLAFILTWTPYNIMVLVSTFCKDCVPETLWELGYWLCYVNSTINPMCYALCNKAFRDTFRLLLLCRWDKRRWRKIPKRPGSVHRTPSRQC

[4] = biological target: T1, M1 muscarinic receptor; assay: R-SAT competitive antagonist assay; format: cell-based; design: expressed in transfected cells; host or cells: NIH/3T3; settings: nr = no significant antagonist or inverse agonist activity up to 1 μM, nr* = nr but significant agonist activity
[5] = biological target: D2 dopamine receptor (Homo sapiens, UniProt P14416); assay: R-SAT competitive antagonist assay
D2 dopamine receptor, sequence (P14416 whole entry): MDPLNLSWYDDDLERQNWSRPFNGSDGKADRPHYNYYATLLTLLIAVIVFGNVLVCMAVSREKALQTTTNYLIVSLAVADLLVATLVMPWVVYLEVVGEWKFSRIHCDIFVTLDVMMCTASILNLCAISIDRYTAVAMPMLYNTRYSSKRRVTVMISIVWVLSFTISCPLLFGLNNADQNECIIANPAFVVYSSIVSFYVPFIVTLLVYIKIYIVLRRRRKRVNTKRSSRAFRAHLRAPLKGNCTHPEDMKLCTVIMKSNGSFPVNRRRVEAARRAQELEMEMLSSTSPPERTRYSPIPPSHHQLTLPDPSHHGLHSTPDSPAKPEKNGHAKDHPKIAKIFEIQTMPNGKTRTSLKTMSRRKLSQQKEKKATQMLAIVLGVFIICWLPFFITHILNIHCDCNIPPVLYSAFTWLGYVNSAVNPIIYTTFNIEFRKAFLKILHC

[6] = biological target: T2, M2 muscarinic receptor (Homo sapiens, UniProt P08172); assay: R-SAT agonist assay
T2 sequence (P08172 1-466): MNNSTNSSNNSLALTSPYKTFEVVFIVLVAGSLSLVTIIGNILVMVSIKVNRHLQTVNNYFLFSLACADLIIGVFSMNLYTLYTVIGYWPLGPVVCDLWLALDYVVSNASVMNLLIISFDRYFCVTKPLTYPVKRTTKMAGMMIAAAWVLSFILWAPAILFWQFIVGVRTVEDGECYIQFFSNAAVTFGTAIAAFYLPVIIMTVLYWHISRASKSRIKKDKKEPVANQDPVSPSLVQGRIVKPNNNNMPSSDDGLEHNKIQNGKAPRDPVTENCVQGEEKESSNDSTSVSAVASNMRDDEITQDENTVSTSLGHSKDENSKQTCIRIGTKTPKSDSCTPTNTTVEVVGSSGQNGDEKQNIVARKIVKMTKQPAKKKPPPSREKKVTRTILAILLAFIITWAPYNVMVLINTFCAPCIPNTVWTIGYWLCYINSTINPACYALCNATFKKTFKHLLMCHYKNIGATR

[7] = system: MK-801-induced hyperactivity; assay: Reversal of MK-801-induced hyperactivity; format: in vivo, Non-Swiss Albino (NSA) mice
Description: Clinically effective antipsychotic drugs can block the behavioral effects of non-competitive N-methyl-D-aspartate […], such as MK-801. […]. […]

[8] = biological target: H1 receptors (Homo sapiens, UniProt P35367); assay: Ligand binding screen at 10 μM
H1 receptors, sequence (P35367 whole entry): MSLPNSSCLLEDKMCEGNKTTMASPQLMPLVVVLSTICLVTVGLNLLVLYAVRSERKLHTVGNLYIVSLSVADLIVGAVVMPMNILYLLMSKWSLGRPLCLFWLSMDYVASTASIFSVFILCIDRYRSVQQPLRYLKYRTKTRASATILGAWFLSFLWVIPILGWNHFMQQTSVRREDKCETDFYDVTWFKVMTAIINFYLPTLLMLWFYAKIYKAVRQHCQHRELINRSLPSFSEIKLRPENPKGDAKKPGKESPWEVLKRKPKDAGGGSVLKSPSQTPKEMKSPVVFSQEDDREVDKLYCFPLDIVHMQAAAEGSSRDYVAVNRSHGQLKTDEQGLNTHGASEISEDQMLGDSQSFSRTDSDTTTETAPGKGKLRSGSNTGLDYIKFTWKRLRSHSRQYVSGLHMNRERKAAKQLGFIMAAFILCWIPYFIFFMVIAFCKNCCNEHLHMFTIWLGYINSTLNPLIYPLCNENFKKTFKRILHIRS

[9] = biological target: T1, M1 muscarinic receptor
[10] = biological target: T3, 5-HT1A receptor (Homo sapiens, UniProt P08908); assay: Ligand binding screen at 10 μM
T3 sequence (P08908 1-422): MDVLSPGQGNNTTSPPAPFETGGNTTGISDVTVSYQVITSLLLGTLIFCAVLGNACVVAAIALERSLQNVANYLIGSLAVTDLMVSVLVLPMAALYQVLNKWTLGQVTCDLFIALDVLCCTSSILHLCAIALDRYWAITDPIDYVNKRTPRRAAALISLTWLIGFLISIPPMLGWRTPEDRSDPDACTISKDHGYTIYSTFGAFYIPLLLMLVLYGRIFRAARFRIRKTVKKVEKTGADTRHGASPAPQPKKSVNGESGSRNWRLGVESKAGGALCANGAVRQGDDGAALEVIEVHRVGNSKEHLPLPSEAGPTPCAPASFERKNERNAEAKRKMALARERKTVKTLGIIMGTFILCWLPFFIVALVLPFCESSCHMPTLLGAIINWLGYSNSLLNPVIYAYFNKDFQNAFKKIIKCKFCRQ

[11] = biological target: M3 receptors (Homo sapiens, UniProt P20309); assay: Ligand binding screen at 10 μM
M3 receptors, sequence (P20309 whole entry): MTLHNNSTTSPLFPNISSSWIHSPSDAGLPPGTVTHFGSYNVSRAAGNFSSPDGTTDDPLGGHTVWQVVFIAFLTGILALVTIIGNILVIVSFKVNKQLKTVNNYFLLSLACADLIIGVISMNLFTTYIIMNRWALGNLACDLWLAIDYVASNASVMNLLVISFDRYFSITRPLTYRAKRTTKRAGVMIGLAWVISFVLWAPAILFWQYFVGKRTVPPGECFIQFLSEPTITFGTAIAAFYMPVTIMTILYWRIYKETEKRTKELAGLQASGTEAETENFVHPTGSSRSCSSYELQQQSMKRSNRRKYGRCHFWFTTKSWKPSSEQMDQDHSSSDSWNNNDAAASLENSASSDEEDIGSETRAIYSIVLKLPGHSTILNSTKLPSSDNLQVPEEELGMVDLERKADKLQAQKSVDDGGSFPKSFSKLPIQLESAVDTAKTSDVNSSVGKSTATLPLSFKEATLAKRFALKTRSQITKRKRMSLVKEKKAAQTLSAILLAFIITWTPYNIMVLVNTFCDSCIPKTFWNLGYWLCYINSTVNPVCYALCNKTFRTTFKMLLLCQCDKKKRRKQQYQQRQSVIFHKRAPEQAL

[12] = dog; oral clozapine (Mosier et al. 2003); cited from earlier work
[13] = biological target: T4, α1A (Alpha 1A) adrenergic receptor (Homo sapiens, UniProt P35348); assay: cell-based
T4 sequence (P35348 1-466): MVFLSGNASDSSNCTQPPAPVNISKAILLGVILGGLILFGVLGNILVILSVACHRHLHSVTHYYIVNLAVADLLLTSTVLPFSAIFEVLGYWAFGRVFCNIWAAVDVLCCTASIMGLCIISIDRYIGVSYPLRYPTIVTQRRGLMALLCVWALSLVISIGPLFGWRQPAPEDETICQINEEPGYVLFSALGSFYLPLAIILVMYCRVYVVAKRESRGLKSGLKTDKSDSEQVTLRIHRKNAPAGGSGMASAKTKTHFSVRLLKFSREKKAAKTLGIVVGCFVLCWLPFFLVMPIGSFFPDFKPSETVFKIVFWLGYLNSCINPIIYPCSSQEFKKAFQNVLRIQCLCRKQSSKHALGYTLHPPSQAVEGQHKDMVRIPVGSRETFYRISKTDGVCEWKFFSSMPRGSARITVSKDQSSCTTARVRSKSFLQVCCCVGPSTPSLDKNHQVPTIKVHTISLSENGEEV

[14] = biological target: 5HT7 receptors (Homo sapiens, UniProt P34969); assay: Ligand binding screen at 10 μM
5HT7 receptors, sequence (P34969 whole entry): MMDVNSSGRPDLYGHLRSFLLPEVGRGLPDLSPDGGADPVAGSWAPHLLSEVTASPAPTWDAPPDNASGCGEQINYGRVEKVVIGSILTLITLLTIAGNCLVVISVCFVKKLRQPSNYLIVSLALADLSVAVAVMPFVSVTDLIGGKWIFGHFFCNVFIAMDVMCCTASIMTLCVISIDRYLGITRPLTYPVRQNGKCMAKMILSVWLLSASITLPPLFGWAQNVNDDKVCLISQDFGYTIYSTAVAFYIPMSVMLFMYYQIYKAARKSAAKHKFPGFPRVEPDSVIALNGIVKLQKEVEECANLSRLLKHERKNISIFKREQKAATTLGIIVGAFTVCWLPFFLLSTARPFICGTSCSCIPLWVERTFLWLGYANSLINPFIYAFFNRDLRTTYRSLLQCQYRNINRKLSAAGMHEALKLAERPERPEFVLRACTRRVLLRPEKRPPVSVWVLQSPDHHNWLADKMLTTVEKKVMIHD

[15] = R-SAT, nr = no significant antagonist or inverse agonist activity up to 1 μM, nr* = nr but significant agonist activity

5-HT2C receptor, sequence (P28335 33-458): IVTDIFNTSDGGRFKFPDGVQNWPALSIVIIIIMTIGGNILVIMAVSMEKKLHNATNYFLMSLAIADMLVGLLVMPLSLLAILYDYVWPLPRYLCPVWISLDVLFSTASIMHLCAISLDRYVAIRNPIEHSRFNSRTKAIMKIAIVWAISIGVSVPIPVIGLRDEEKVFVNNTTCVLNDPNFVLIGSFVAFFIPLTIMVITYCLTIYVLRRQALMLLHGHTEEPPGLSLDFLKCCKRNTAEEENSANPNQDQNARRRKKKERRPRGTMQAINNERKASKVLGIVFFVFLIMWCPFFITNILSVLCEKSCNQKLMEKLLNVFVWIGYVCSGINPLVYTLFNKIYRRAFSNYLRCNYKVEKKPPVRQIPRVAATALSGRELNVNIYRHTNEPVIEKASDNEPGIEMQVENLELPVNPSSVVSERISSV

SMILES: Clc1ccc2c(c1)N=C(N1CCNCC1)c1ccccc1N2 [NDMC, 8-chloro-11-(1-piperazinyl)-5H-dibenzo [b,e][1,4] diazepine]
- inhibition at 10 µM [1]: ≥ 90%
- Ki [2]: 0.0158 µM
- pKi 5-HT2C, competitive antagonist [2, 15]: 7.8 ± 0.2
- Emax ([3]; CHO, read-out: M1 % Efficacy, PI hydrolysis, relative to carbachol): 56%
- EC50 ([3]; M1 pEC50, PI hydrolysis, agonist): 0.2 µM
- EC50 ([3]; potency, M1 agonist, PI hydrolysis, n=3): 0.093 µM
- pKi M1, competitive antagonist [4]: nr*
- Ki [5]: 0.0631 µM
- pKi D2, competitive antagonist [5, 15]: 7.2 ± 0.1
- EC50 ([6]; M2 pEC50, R-SAT agonist): 0.339 µM and 0.316 µM
- M2 Efficacy ([6]; R-SAT, relative to carbachol, No response/nr = no agonist activity up to 10 μM): 106 ± 19%
- minimal effective dose, attenuation of MK-801-induced hyperactivity ([7]; p.o.): 10 mg/kg
- minimal effective dose, attenuation of MK-801-induced hyperactivity ([7]; s.c.): 1 mg/kg
- inhibition at 10 µM [8]: ≥ 90%
- pKi, competitive antagonist ([9]; PI hydrolysis in the presence of 3-micromolar carbachol): no response
- M1 % Efficacy ([9]; PI hydrolysis, relative to carbachol, listed as N-desmethylclozapine): 65 ± 10%
- inhibition at 10 µM [10]: ≥ 90%
- inhibition at 10 µM [11]: ≥ 90%
- Cmax of desmethylclozapine as share of that of clozapine [12]: approximately 20%
- Ki [13]: 0.0501 µM
- inhibition at 10 µM [14]: ≥ 90%
